The source of these data is PubChem BioAssay (NCI).

Among the test systems are SF-539 CNS; MDA-MB-435; NCI-H23 lung; EKVX NSCLC; SNB-19 CNS; A498 renal; HOP-62 NSCLC; BT-549 breast; OVCAR-3 ovarian; HT29 colon.
Common to all, as to test: NCI tumour cell line growth inhibition, 48 h

Structures are written as SMILES. Several values for one entry are separate records, joined by “and”; a condition that tells them apart may be missing. Equal entries are not always repeated.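 Cultured in 96-well plates, cells were exposed to test compound for 48 hours across five concentrations. GI50 = concentration required for 50% inhibition of growth. TGI: total growth inhibition.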

Regarding `CCN(CC)P(=O)(c1ccc2c(c1)OCCOCCOCCOCCO2)N(CC)CC`, the TGI in the assay with SF-539 CNS, in the assay with MDA-MB-435, with NCI-H23 lung, with EKVX NSCLC, in the assay with SNB-19 CNS and in the assay on A498 renal was over 100 µM throughout. Besides, the TGI with HOP-62 NSCLC and with BT-549 breast was over 100 µM each time.
Regarding `CCOC(=O)c1ccc(-c2onc(C)c2Br)[nH]1`, the TGI in the assay on OVCAR-3 ovarian, with MDA-MB-435, with HT29 colon, in the assay with NCI-H23 lung, with EKVX NSCLC and in the assay with SNB-19 CNS was over 100 µM each time. Moreover, the TGI in the assay with A498 renal, with HOP-62 NSCLC and with BT-549 breast was over 100 µM throughout.
In the case of `Fc1ccc(/C=C2\COCC3=C2NC(=S)NC3c2ccc(F)cc2)cc1` (centres undefined), the TGI with OVCAR-3 ovarian amounted to 32.6 µM; in the assay with SF-539 CNS it was 36.9 µM; with MDA-MB-435, 33.3 µM; in the assay with NCI-H23 lung it was 50.7 µM; in the assay with EKVX NSCLC it was 42.6 µM; in the assay with SNB-19 CNS, 47.7 µM. Besides, the TGI in the assay on A498 renal came out at 30.6 µM; in the assay with HOP-62 NSCLC, 31.7 µM; with BT-549 breast it was 53.5 µM.
`c1ccc(C/C(=N\Nc2nc3ccccc3[nH]2)c2ccccn2)cc1`: the TGI was determined as 0.741 µM with SF-539 CNS; 11.1 µM in the assay with MDA-MB-435; 5.23 µM in the assay with HT29 colon; 13.5 µM in the assay on NCI-H23 lung; 17.9 µM in the assay with SNB-19 CNS; 1.37 µM in the assay with A498 renal. Further, the figures for the TGI in the assay on HOP-62 NSCLC and in the assay on BT-549 breast were 12.6 µM and 16.1 µM, respectively.
As to `CC(C)(C)OC(=O)C1C(=O)NC(=O)CC1C(OCc1ccccc1)C(OCc1ccccc1)C(COCc1ccccc1)OCc1ccccc1` (centres undefined), the TGI with SF-539 CNS was over 100 µM; in the assay on MDA-MB-435, over 100 µM; in the assay on HT29 colon it was over 75 µM; in the assay with NCI-H23 lung it was over 100 µM; with EKVX NSCLC, over 100 µM; with SNB-19 CNS it was over 100 µM. The TGI in the assay with A498 renal and in the assay on BT-549 breast was over 100 µM in each case. Besides, the GI50 in the assay with MDA-MB-435 is > 100 µM and 28.9 µM; in the assay on BT-549 breast, > 100 µM and 31.7 µM.
In the case of `COc1nc2ncc([C@@H](OC(C)=O)[C@@H](COC(C)=O)OC(C)=O)nc2c(=O)n1C`, the TGI in the assay on OVCAR-3 ovarian, in the assay on SF-539 CNS, with MDA-MB-435, with HT29 colon, in the assay on EKVX NSCLC and in the assay with SNB-19 CNS was over 100 µM in each case. In addition, the TGI in the assay with A498 renal, with HOP-62 NSCLC and with BT-549 breast was over 100 µM in each case.
In the case of `CCN1CC2=C(OC(N)=C(C#N)C2c2ccc(Cl)cc2)/C(=C/c2ccc(Cl)cc2)C1` (centres undefined), the TGI in the assay with OVCAR-3 ovarian is over 100 µM; in the assay with MDA-MB-435 it was over 100 µM; in the assay with HT29 colon, over 100 µM; in the assay on NCI-H23 lung it was 68.7 µM; with EKVX NSCLC, over 100 µM; with SNB-19 CNS it was 51 µM. The TGI was 37.5 µM in the assay with A498 renal, 78.4 µM with HOP-62 NSCLC and over 100 µM with BT-549 breast.
As for `CN(C(=O)Cc1cc(Cl)c(Cl)cc1NC(=O)CCCN)[C@H]1CCCC[C@@H]1N1CCCC1`, the TGI in the assay with OVCAR-3 ovarian is over 100 µM; in the assay on MDA-MB-435, 31.6 µM; with HT29 colon, 47.7 µM; with NCI-H23 lung it was over 100 µM; with EKVX NSCLC, over 100 µM; with SNB-19 CNS, 45.4 µM. Besides, the TGI is 32.4 µM in the assay with A498 renal, over 100 µM in the assay on HOP-62 NSCLC and over 100 µM in the assay with BT-549 breast.
As to `C[C@]12CC[C@H]3[C@@H](CC=C4C[C@@H](N5CCCC5)CC[C@@]43C)[C@@H]1C/C(=C\c1ccc([N+](=O)[O-])cc1)[C@@H]2O`, the TGI with OVCAR-3 ovarian was determined as 31.5 µM; in the assay with SF-539 CNS, 32.4 µM; with MDA-MB-435, 31 µM; in the assay on HT29 colon it was 27.4 µM; in the assay on NCI-H23 lung it was 37.4 µM; in the assay on SNB-19 CNS, 59.2 µM. Also, the TGI turned out to be 28.6 µM with A498 renal, 32 µM with HOP-62 NSCLC and 26.7 µM with BT-549 breast.
As to `CN(C)c1ccc(-c2c(C#N)c(-c3ccccc3)n(NS(=O)(=O)c3ccccc3)c(=O)c2C#N)cc1`, the TGI in the assay with SF-539 CNS is over 100 µM; with MDA-MB-435 it was over 100 µM; in the assay on HT29 colon it was over 100 µM; in the assay on EKVX NSCLC it was over 100 µM; in the assay on SNB-19 CNS it was 83.5 µM; in the assay with A498 renal, over 100 µM. The TGI in the assay on HOP-62 NSCLC and with BT-549 breast was over 100 µM throughout.
As to `O=c1[nH]c2c(C(F)(F)F)c(Cl)c(-c3ccccc3)nc2o1`, the TGI with OVCAR-3 ovarian was 65.8 µM; with MDA-MB-435, over 100 µM; with HT29 colon, 51.6 µM; in the assay on NCI-H23 lung, 52.1 µM; in the assay with EKVX NSCLC it was 41.6 µM; in the assay with SNB-19 CNS, over 100 µM. Besides, the TGI with A498 renal was over 100 µM; in the assay with HOP-62 NSCLC, over 100 µM; in the assay with BT-549 breast it was 60.3 µM.
With `COc1cc(OC)c(-n2[nH]c(=O)n(C)c2=O)c(OC)c1`, the TGI in the assay on OVCAR-3 ovarian, in the assay on SF-539 CNS, with MDA-MB-435, with HT29 colon, in the assay with NCI-H23 lung and in the assay on EKVX NSCLC was over 100 µM in each case. The TGI in the assay on SNB-19 CNS, with A498 renal and in the assay on BT-549 breast was over 100 µM throughout.
As for `COC(=O)[C@H](Cc1ccccc1)NC(=O)N(CCN(CCC#N)C(=O)N[C@H](C(=O)OC)C(C)C)c1ccccc1`, the TGI in the assay on OVCAR-3 ovarian, with SF-539 CNS, in the assay with MDA-MB-435, in the assay on NCI-H23 lung, in the assay on EKVX NSCLC and in the assay with SNB-19 CNS was over 100 µM throughout. The TGI in the assay with A498 renal, with HOP-62 NSCLC and with BT-549 breast was over 100 µM each time.
Regarding `Cc1ccc2[nH]c3c(c2c1)C1CCC(C(C)(C)C)CC1C1C(=O)N(c2ccc(Oc4ccccc4)cc2)C(=O)C31` (centres undefined), the TGI is 35.4 µM in the assay with OVCAR-3 ovarian; over 100 µM in the assay with MDA-MB-435; over 100 µM in the assay on HT29 colon; 58.9 µM in the assay with NCI-H23 lung; over 100 µM in the assay on EKVX NSCLC; over 71.9 µM in the assay on SNB-19 CNS. Besides, the TGI was 31.5 µM in the assay with A498 renal, over 100 µM in the assay on HOP-62 NSCLC and 64.1 µM in the assay on BT-549 breast.
